Columns and labels:
[1] = molecular target: ATP-dependent translocase ABCB1 (Homo sapiens, UniProt P08183); test: Inhibition of P-gp-mediated multidrug resistance in doxorubicin-resistant human MCF7/ADR cells assessed as fold reversal of resistance by measuring doxorubicin IC50 incubated for 48 hrs by CCK-8 assay relative to doxorubicin IC50 in absence of compound; format: cell-based; conditions: nci-adr-res
MCF7 = test: Cytotoxicity against human MCF7 cells assessed as inhibition rate at 5 uM measured after […] hrs by CCK-8 assay relative to control; format: functional
NCI/ADR-RES = test: Cytotoxicity against doxorubicin-resistant human MCF-7/ADR cells assessed as inhibition rate at 5 uM measured after […] hrs by CCK-8 assay relative to control; format: functional

Sequence of ATP-dependent translocase ABCB1 (P08183 whole entry): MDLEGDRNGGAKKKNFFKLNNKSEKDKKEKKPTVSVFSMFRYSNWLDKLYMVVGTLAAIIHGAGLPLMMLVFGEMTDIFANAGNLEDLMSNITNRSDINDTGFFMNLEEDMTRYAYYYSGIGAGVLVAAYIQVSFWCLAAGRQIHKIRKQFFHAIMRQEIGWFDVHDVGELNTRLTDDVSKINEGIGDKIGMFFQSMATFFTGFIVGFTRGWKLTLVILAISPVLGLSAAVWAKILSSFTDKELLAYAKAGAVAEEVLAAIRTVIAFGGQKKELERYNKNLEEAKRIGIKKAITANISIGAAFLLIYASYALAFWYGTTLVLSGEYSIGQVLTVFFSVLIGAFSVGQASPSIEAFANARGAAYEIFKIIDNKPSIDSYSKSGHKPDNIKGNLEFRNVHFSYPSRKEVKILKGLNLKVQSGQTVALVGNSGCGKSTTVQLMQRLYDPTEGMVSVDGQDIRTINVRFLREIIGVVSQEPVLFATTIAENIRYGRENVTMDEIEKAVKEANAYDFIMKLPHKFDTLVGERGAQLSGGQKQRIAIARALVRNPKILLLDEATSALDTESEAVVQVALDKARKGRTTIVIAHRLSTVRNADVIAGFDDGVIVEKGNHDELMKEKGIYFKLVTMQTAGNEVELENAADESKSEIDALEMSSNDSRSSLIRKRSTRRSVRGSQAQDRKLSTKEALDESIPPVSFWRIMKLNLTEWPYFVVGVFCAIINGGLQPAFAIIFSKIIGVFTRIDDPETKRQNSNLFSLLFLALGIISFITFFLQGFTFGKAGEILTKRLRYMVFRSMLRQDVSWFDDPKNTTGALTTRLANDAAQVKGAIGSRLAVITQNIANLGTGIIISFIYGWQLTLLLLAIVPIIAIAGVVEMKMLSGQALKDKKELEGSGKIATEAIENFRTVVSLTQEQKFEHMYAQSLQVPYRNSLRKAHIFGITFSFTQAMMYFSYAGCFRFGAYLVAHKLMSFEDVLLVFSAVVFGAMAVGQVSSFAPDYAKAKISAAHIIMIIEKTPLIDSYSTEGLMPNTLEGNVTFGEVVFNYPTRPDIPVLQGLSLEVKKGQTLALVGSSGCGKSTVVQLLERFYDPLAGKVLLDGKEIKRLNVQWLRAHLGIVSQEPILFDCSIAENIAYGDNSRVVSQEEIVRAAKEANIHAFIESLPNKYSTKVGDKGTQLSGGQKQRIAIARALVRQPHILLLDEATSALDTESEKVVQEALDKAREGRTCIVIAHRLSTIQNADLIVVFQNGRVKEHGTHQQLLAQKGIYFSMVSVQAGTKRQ

Row | Compound | fold change (FC) [1] | inhibition at 5 µM (MCF7) [%] | inhibition at 5 µM (NCI/ADR-RES) [%]
1 | COc1cc2c(cc1OC)CN(C(=O)c1cc3cc(-c4ccc(NC(=O)c5ccc(Cl)cc5)cc4)ccc3n1Cc1ccc(F)cc1)CC2 | 53.5 | 11.2 | 16.6
2 | COc1cc2c(cc1OC)CN(C(=O)c1cc3cc(-c4ccc(NC(=O)c5ccc(OC(F)(F)F)cc5)cc4)ccc3[nH]1)CC2 | – | 46.7 | 53.8
3 | COc1cc2c(cc1OC)CN(C(=O)c1cc3cc(-c4ccc([N+](=O)[O-])cc4)ccc3[nH]1)CC2 | 55.8 | – | –
4 | COc1cc2c(cc1OC)CN(C(=O)c1cc3cc(-c4ccc(NC(=O)c5ccccc5)cc4)ccc3[nH]1)CC2 | 146.3 | 15.5 | 11
5 | COc1cc2c(cc1OC)CN(C(=O)c1cc3cc(-c4ccc(NC(=O)c5ccc(Cl)cc5)cc4)ccc3n1Cc1cccc(Br)c1)CC2 | 118.6 | 7.9 | 21.6
6 | COc1ccc(C(=O)Nc2ccc(-c3ccc4[nH]c(C(=O)N5CCc6cc(OC)c(OC)cc6C5)cc4c3)cc2)cc1 | 78 | 19.6 | 23.9
7 | COc1cc2c(cc1OC)CN(C(=O)c1cc3cc(-c4ccc(NC(=O)c5ccc(Cl)cc5)cc4)ccc3n1Cc1ccc(OC(F)(F)F)cc1)CC2 | 29.2 | 0.3 | 2.8
8 | COc1cccc(-c2ccc3[nH]c(C(=O)N4CCc5cc(OC)c(OC)cc5C4)cc3c2)c1 | 204.4 | – | –
9 | COc1cc2c(cc1OC)CN(C(=O)c1cc3cc(-c4cccc(F)c4)ccc3[nH]1)CC2 | 19.9 | – | –
10 | COc1cc2c(cc1OC)CN(C(=O)c1cc3cc(-c4ccccc4)ccc3[nH]1)CC2 | 10 | – | –
11 | COc1cc2c(cc1OC)CN(C(=O)c1cc3cc(-c4ccc(NC(=O)c5ccc(Br)cc5)cc4)ccc3[nH]1)CC2 | 201.7 | 10.2 | 19.1
12 | COc1cc2c(cc1OC)CN(C(=O)c1cc3cc(-c4ccc(NC(=O)c5ccc(OC(C)(C)C)cc5)cc4)ccc3[nH]1)CC2 | 96.6 | 15.9 | 8.8
13 | COc1cc2c(cc1OC)CN(C(=O)c1cc3cc(-c4ccccc4F)ccc3[nH]1)CC2 | 17 | – | –
14 | COc1cc2c(cc1OC)CN(C(=O)c1cc3cc(-c4ccc(NC(=O)c5ccc(I)cc5)cc4)ccc3[nH]1)CC2 | 83 | 15.4 | 12.9
15 | COc1cc2c(cc1OC)CN(C(=O)c1cc3cc(-c4ccc(Cl)cc4)ccc3[nH]1)CC2 | 100.4 | – | –
16 | COc1cc2c(cc1OC)CN(C(=O)c1cc3cc(-c4cccc(C)c4)ccc3[nH]1)CC2 | 58.1 | – | –
17 | C/C=C/C[C@@H](C)[C@@H](O)[C@H]1C(=O)N[C@@H](CC)C(=O)N(C)CC(=O)N(C)[C@@H](CC(C)C)C(=O)N[C@@H](C(C)C)C(=O)N(C)[C@@H](CC(C)C)C(=O)N[C@@H](C)C(=O)N[C@H](C)C(=O)N(C)[C@@H](CC(C)C)C(=O)N(C)[C@@H](CC(C)C)C(=O)N(C)[C@@H](C(C)C)C(=O)N1C [CYCLOSPORINE] | – | – | 24.5
18 | COc1cc2c(cc1OC)CN(C(=O)c1cc3cc(-c4ccc(NC(=O)c5ccccc5OC)cc4)ccc3[nH]1)CC2 | 16.1 | 20.7 | -2.9
19 | COc1cc2c(cc1OC)CN(C(=O)c1cc3cc(-c4ccc(NC(=O)c5ccc(Cl)cc5)cc4)ccc3n1Cc1ccc(C)cc1)CC2 | 36.6 | 3.7 | 2.5
20 | COc1cc2c(cc1OC)CN(C(=O)c1cc3cc(-c4ccc(NC(=O)c5cccc(Cl)c5)cc4)ccc3[nH]1)CC2 | 431.5 | 12 | 17.7
21 | COc1cc2c(cc1OC)CN(C(=O)c1cc3cc(-c4ccc(NC(=O)c5ccc(F)cc5)cc4)ccc3[nH]1)CC2 | 3628.7 | 52.8 | 50.4
22 | COc1cc2c(cc1OC)CN(C(=O)c1cc3cc(-c4ccc(OC(F)(F)F)cc4)ccc3[nH]1)CC2 | 99.1 | – | –
23 | COc1cc2c(cc1OC)CN(C(=O)c1cc3cc(-c4ccc(NC(=O)c5ccc(Cl)cc5)cc4)ccc3n1Cc1ccccc1C(F)(F)F)CC2 | 10.4 | 19.3 | 8.6
24 | COc1cc(OC)cc(-c2ccc3[nH]c(C(=O)N4CCc5cc(OC)c(OC)cc5C4)cc3c2)c1 | 86.4 | – | –
25 | CCOc1ccc(C(=O)Nc2ccc(-c3ccc4[nH]c(C(=O)N5CCc6cc(OC)c(OC)cc6C5)cc4c3)cc2)cc1 | 333 | 15.4 | 7.7
26 | COc1cc2c(cc1OC)CN(C(=O)c1cc3cc(-c4ccc(NC(=O)c5ccc(C#N)cc5)cc4)ccc3[nH]1)CC2 | 39.1 | 10.7 | 19.5
27 | COc1cccc(Cn2c(C(=O)N3CCc4cc(OC)c(OC)cc4C3)cc3cc(-c4ccc(NC(=O)c5ccc(Cl)cc5)cc4)ccc32)c1 | 26.5 | 5 | 5

Row | Compound | fold change (FC) [1] | inhibition at 5 µM (MCF7) [%] | inhibition at 5 µM (NCI/ADR-RES) [%]
28 | COc1cc2c(cc1OC)CN(C(=O)c1cc3cc(-c4ccc(NC(=O)c5cc(OC)c(OC)c(OC)c5)cc4)ccc3[nH]1)CC2 | 93.6 | 14.1 | 10.6
29 | COc1cccc(C(=O)Nc2ccc(-c3ccc4[nH]c(C(=O)N5CCc6cc(OC)c(OC)cc6C5)cc4c3)cc2)c1 | 325.9 | 11.4 | 18.9
30 | COc1ccc(-c2ccc3[nH]c(C(=O)N4CCc5cc(OC)c(OC)cc5C4)cc3c2)c(OC)c1 | 112.7 | – | –
31 | CCCOc1ccc(-c2ccc3[nH]c(C(=O)N4CCc5cc(OC)c(OC)cc5C4)cc3c2)cc1 | 16.5 | – | –
32 | COc1ccc(-c2ccc3[nH]c(C(=O)N4CCc5cc(OC)c(OC)cc5C4)cc3c2)cc1 | 46.4 | – | –
33 | COc1cc2c(cc1OC)CN(C(=O)c1cc3cc(-c4ccc5c(c4)OCO5)ccc3[nH]1)CC2 | 33.4 | – | –
34 | COc1cc2c(cc1OC)CN(C(=O)c1cc3cc(-c4cccc([N+](=O)[O-])c4)ccc3[nH]1)CC2 | 76.3 | – | –
35 | COc1cc2c(cc1OC)CN(C(=O)c1cc3cc(-c4ccc(N)cc4)ccc3[nH]1)CC2 | 34.9 | – | –
36 | COc1cc2c(cc1OC)CN(C(=O)c1cc3cc(-c4ccc(OC(C)(C)C)cc4)ccc3[nH]1)CC2 | 27.5 | – | –
37 | COc1cc2c(cc1OC)CN(C(=O)c1cc3cc(-c4ccc(F)cc4)ccc3[nH]1)CC2 | 51.3 | – | –
38 | COc1cc2c(cc1OC)CN(C(=O)c1cc3cc(-c4cccc(Cl)c4)ccc3[nH]1)CC2 | 33.4 | – | –
39 | COc1cc2c(cc1OC)CN(C(=O)c1cc3cc(-c4ccccc4C)ccc3[nH]1)CC2 | 26.3 | – | –
40 | COc1cc2c(cc1OC)CN(C(=O)c1cc3cc(-c4cccc(OC)c4OC)ccc3[nH]1)CC2 | 88.3 | – | –
41 | COc1ccc(OC)c(-c2ccc3[nH]c(C(=O)N4CCc5cc(OC)c(OC)cc5C4)cc3c2)c1 | 108.7 | – | –
42 | COc1ccc(-c2ccc3[nH]c(C(=O)N4CCc5cc(OC)c(OC)cc5C4)cc3c2)cc1OC | 56.2 | – | –
43 | COc1cc2c(cc1OC)CN(C(=O)c1cc3cc(-c4ccc(C)cc4)ccc3[nH]1)CC2 | 41.4 | – | –
44 | COc1cc2c(cc1OC)CN(C(=O)c1cc3cc(-c4ccc(Oc5ccccc5)cc4)ccc3[nH]1)CC2 | 30 | – | –
45 | CCOc1ccc(-c2ccc3[nH]c(C(=O)N4CCc5cc(OC)c(OC)cc5C4)cc3c2)cc1 | 33.6 | – | –
46 | COc1ccc(CCN(C)CCCC(C#N)(c2ccc(OC)c(OC)c2)C(C)C)cc1OC (stereo unspecified) | – | 6.9 | 12.2
47 | COc1cc2c(cc1OC)CN(C(=O)c1cc3cc(-c4cc(OC)c(OC)c(OC)c4)ccc3[nH]1)CC2 | 137.6 | – | –
48 | COc1cccc2c1C(=O)c1c(O)c3c(c(O)c1C2=O)C[C@@](O)(C(=O)CO)C[C@@H]3O[C@H]1C[C@H](N)[C@H](O)[C@H](C)O1 [DOXORUBICIN] | 1 | – | –
49 | COc1cc2c(cc1OC)CN(C(=O)c1cc3cc(-c4ccc(OC(C)C)cc4)ccc3[nH]1)CC2 | 24 | – | –
50 | COc1cc2c(cc1OC)CN(C(=O)c1cc3cc(-c4ccccc4OC)ccc3[nH]1)CC2 | 15.1 | – | –
51 | CCCCOc1ccc(-c2ccc3[nH]c(C(=O)N4CCc5cc(OC)c(OC)cc5C4)cc3c2)cc1 | 18.3 | – | –
52 | COc1cc2c(cc1OC)CN(C(=O)c1cc3cc(-c4ccccc4Cl)ccc3[nH]1)CC2 | 52.8 | – | –
53 | COc1cc2c(cc1OC)CN(C(=O)c1cc3cc(-c4ccccc4[N+](=O)[O-])ccc3[nH]1)CC2 | 41.9 | – | –

— ChEMBL document CHEMBL5380848, “Novel Benzo Five-Membered Heterocycle Derivatives as P-Glycoprotein Inhibitors: Design, Synthesis, Molecular Docking, and Anti-Multidrug Resistance Activity” (J Med Chem, 2023)
